In patent US12103983B2, “Compound and angiogenic agent comprising same” (HiPep Laboratories, priority 2018, dated 2024):
Bridge positions count the residues as written; N and C are the ends. Square brackets hold non-standard residues; d marks the D form. Peptide text beside a SMILES is read from it. AEEA = NCCOCCOCC(=O)O

These molecules were tested on endogenous cellular enzyme (assay: Stability test against endogenous cellular enzyme (HUVEC cell lysate)). Settings: 37° C., after 6 hours of the assay.
Type: in vitro ADME, human
Description: In order to test retention of the effect, and usefulness as a drug, each peptide was subjected to a stability test against endogenous cellular enzyme.
Human vascular endothelial cells (HUVECs (Human Umbilical Vein Endothelial Cells, Promocell GmbH.)) were used. Cryopreserved HUVECs were cultured for 2 days in Endothelial Cell Growth Medium (Promocell GmbH.). The cells were detached and collected by a conventional method using trypsin-EDTA, and washed with H2O, followed by addition of Lysis Buffer for Enzyme extraction (5 mL of TBS pH 7.5, 5 mL of Triton X100 (trade name), 40 mL of H2O with cOmplete mini, manufactured by Roche) thereto. The resulting mixture was left to stand on ice for 30 minutes to lyse the cells. The resulting cell lysate was centrifuged at 13,000 rpm at 4° C. for 3 min, and the supernatant was collected. The protein concentration was measured at A280 (Nano drop, Thermofischer scientific), and then adjusted to 2 mg/mL to prepare a protein solution for an assay.
In each of PCR tubes, 50 μL of each of four kinds of AGP solutions (2 mg/mL)+20 μL of the cell lysate (2 mg/mL)+30 μL of H2O were mixed together, and the resulting mixtures were incubated at 37° C. in an incubator for 0, 1, 3, or 6 hours. Thereafter, each mixture was heated in a hot water bath at 90° C. for 5 minutes to inactivate enzyme, and then subjected to LC-MS analysis. The remaining peptide was quantified based on the area value of the peak detected with UV 210 nm in LC.

| SMILES | remaining peptide / degradation (in words) |
| --- | --- |
| CC(C)CC1NC(=O)CNC(=O)C(Cc2ccccc2)NC(=O)C(C(C)C)NC(=O)C(C(C)C)NC(=O)C(CO)NC(=O)COCCOCCNC(=O)C(N)CSSCC(C(N)=O)NC(=O)CNC(=O)C(CCCNC(=N)N)NC1=O (stereo not drawn) [cAGP2, Cyclic(DCys-O2Oc-SVVFGLR-G-DCys)-NH2] (H-C[AEEA]SVVFGLRGC-NH2; disulfide 1-11; configuration not given here) | remained almost without degradation |
| CC(C)CC1NC(=O)CNC(=O)C(Cc2ccccc2)NC(=O)C(C(C)C)NC(=O)C(C(C)C)NC(=O)C(CO)NC(=O)COCCOCCNC(=O)C(N)CSSCC(C(N)=O)NC(=O)CNC(=O)C(CCCNC(=N)N)NC1=O (stereo not drawn) [cAGP3, Cyclic(Cys-O2Oc-SVVFGLR-G-Cys)-NH2] (H-C[AEEA]SVVFGLRGC-NH2; disulfide 1-11; configuration not given here) | remained almost without degradation |
| CC(C)CC(NC(=O)CNC(=O)C(Cc1ccccc1)NC(=O)C(NC(=O)C(NC(=O)C(CO)NC(=O)COCCOCCN)C(C)C)C(C)C)C(=O)NC(CCCNC(=N)N)C(N)=O (stereo not drawn) [AGP-O2Oc, O2Oc-SVVFGLR-NH2] (H-[AEEA]SVVFGLR-NH2; configuration not given here) | same level of stability |
